Experimental data published in US20240246941A1, “SUBSTITUTED 4-(3-AMINOPROP-1-YL)AMINOQUINOLINE ANALOGS AS MODULATORS OF MELANOMA-ASSOCIATED ANTIGEN 11 UBIQUITIN LIGASE” (ST. JUDE CHILDREN'S RESEARCH HOSPITAL, INC., priority 2020, published 2024).

Molecular target: MAGE-A11:PCF11 (Homo sapiens (Human), UniProt P43364)
Experiment: TR-FRET single point screening at 15 μM
Format: binding
Set-up: unit not given here
Conditions: single point TR-FRET screening at 15 μM against MAGE-A11:PCF11
In short: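 Competition TR-FRET: compounds at final 15 μM mixed with 200 nM FAM-PCF11_4, 5 nM GST-MAGEA11 and 5 nM Tb-anti-GST in Tris pH 7.5/MgCl2/BSA/DTT buffer, room temperature, 90 min. Emission ratio 520/490 nm (340 nm excitation) expressed as % inhibition relative to positive and negative controls.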

Chain of MAGE-A11:PCF11 (P43364 218-429): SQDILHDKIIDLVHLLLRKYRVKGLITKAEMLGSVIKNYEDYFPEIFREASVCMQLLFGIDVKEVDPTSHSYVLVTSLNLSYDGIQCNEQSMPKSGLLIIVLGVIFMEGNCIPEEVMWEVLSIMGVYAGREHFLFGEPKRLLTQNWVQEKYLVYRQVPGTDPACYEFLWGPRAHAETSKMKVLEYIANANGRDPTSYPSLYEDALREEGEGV

SMILES | TR-FRET signal
CCN1CCN(c2c(S(=O)(=O)c3ccc(Cl)cc3)cnc3ccc(C)cc23)CC1 [SJ000083967] | −3.098
Clc1ccc2c(N3CCN(CCCN4CCN(c5ccnc6cc(Cl)ccc56)CC4)CC3)ccnc2c1 [SJ000518980] | −2.989
CCCN(CCCNc1c2ccc(Cl)cc2nc2ccc(OC)cc12)Cc1scnc1C [SJ000522976] | −127
CCN1CCN(c2c(S(=O)(=O)c3ccc(C)cc3)cnc3cc(OC)c(OC)cc23)CC1 [SJ000083965] | 7.146
CCOC(=O)c1cnc2c(C)cc(C)cc2c1NCCN(C)C [SJ000037396] | 4.92
Fc1ccc(CN(CCCCNc2ccnc3cc(Cl)ccc23)Cc2ccccc2)cc1 [SJ000522725] | 30.2
CCc1nc2ccccc2c(NC(=O)CN2CCCCC2)c1C [SJ000111682] | 1.593
CCCN(CCCNc1c2ccc(Cl)cc2nc2ccc(OC)cc12)Cc1ccc2ccccc2c1 [SJ000520953] | −129.1
COc1ccc(S(=O)(=O)N2CCN(c3ccnc4cc(Cl)ccc34)CC2)cc1 [SJ000199955] | −32.07
Cc1ccc(S(=O)(=O)c2cnc3ccc(Cl)cc3c2N2CCN(c3ccccc3)CC2)cc1 [SJ000117050] | −3.321
COc1ccc(N2CCN(c3c(S(=O)(=O)c4ccccc4)cnc4ccc(OC)cc34)CC2)cc1 [SJ000117071] | −32.67
Clc1ccc2c(NC3CCN(Cc4ccc5ccccc5c4)CC3)ccnc2c1 [SJ000523100] | 4.171
CCCN(CCCNc1c2ccc(Cl)cc2nc2ccc(OC)cc12)Cc1ccccn1 [SJ000520919] | −146.2
CCCCCN(CCCCNc1ccnc2cc(Cl)ccc12)Cc1ccccc1 [SJ000361196] | 19.1
COc1ccc(CN2CCC(Nc3ccnc4cc(Cl)ccc34)CC2)cc1 [SJ000523090] | 23.72
Clc1ccc2c(NCCCCN(Cc3ccccc3)Cc3nccs3)ccnc2c1 [SJ000520448] | −1.698
Clc1ccc2c(NC3CCN(Cc4ccccc4)CC3)ccnc2c1 [SJ000357524] | 6.554
Cn1cc(CN(CCCCNc2ccnc3cc(Cl)ccc23)Cc2ccccc2)c2ccccc21 [SJ000520440] | −14.35
O=S(=O)(c1ccccc1)c1cnc2ccc(Cl)cc2c1N1CCN(Cc2ccccc2)CC1 [SJ000247242] | −30.28
COc1ccc2nc3cc(Cl)ccc3c(NCCCNCc3cccc4c3OCO4)c2c1 [SJ000520991] | −257.1

SMILES | TR-FRET signal
COc1ccc(F)cc1CN(CCCCNc1ccnc2cc(Cl)ccc12)Cc1ccccc1 [SJ000357496] | 20.78
Cc1ccsc1CN(CCCCNc1ccnc2cc(Cl)ccc12)Cc1ccccc1 [SJ000361191] | 23.44
COc1ccccc1N1CCN(c2c(S(=O)(=O)c3ccc(C)cc3)cnc3ccc(Cl)cc23)CC1 [SJ000117067] | −12.86
Clc1ccc2c(NCCCCN(CCOCc3ccccc3)Cc3ccccc3)ccnc2c1 [SJ000357543] | −15.92
COc1ccc(F)c(CNCCCNc2c3ccc(Cl)cc3nc3ccc(OC)cc23)c1 [SJ000520998] | −355
CCc1ccc2ncc(S(=O)(=O)c3ccc(OC)cc3)c(N3CCN(C)CC3)c2c1 [SJ000083954] | −5.969
CCCN(CCCNc1c2ccc(Cl)cc2nc2ccc(OC)cc12)CC1CCCCC1 [SJ000520938] | −163.9
CCC(C)CN(CCCCNc1ccnc2cc(Cl)ccc12)Cc1ccccc1 (stereo not shown) [SJ000361208] | 35.37
CCCN(CCCNc1c2ccc(Cl)cc2nc2ccc(OC)cc12)Cc1cccs1 [SJ000520920] | −164.1
CCOc1ccc2ncc(S(=O)(=O)c3ccc(C)cc3)c(N3CCN(c4ccccc4F)CC3)c2c1 [SJ000117077] | 5.159
CCOC(=O)c1cnc2ccc(C)cc2c1NCCN1CCOCC1 [SJ000027268] | −0.3915
C#CCOCC(O)CN1CCN(c2cc(C(F)(F)F)nc3ccccc23)CC1 (stereo not shown) [SJ000228018] | −9.516
CCc1ccc2ncc(S(=O)(=O)c3ccc(OC)cc3)c(N3CCN(c4ccc(F)cc4)CC3)c2c1 [SJ000117064] | −9.084
CCN1CCN(c2c(S(=O)(=O)c3ccccc3)cnc3ccc(OC)cc23)CC1 [SJ000083958] | 0.1242
Fc1ccc(CN(CCCCNc2ccnc3cc(Cl)ccc23)Cc2ccccc2)cc1F [SJ000361197] | 26.09
CN1CCN(c2c(C(=O)c3ccccc3)cnc3ccc(Cl)cc23)CC1 [SJ000247338] | −5.573
CCCN(CCCNc1c2ccc(Cl)cc2nc2ccc(OC)cc12)Cc1ccccc1[N+](=O)[O-] [SJ000520947] | −228.3
CCCN(CCCNc1c2ccc(Cl)cc2nc2ccc(OC)cc12)Cc1ccccc1 [SJ000520925] | −127.9
O=S(=O)(c1ccccc1)c1cnc2ccc(F)cc2c1N1CCN(c2ccc(F)cc2)CC1 [SJ000083980] | −11.08
CCCN(CCCNc1c2ccc(Cl)cc2nc2ccc(OC)cc12)Cc1ccco1 [SJ000520935] | −202.6

Same assay, conditions: single point TR-FRET screening of quinoline compounds against MAGE-A11:PCF11; 15 μM

SMILES | TR-FRET signal
CCCN(CCCNc1ccnc2cc(C(F)(F)F)ccc12)Cc1cccs1 [SJ000361253] | 19.53
CCCN(CCCNc1c2ccc(Cl)cc2nc2ccc(OC)cc12)Cc1cccc2ccccc12 [SJ000520952] | −40.77
CCOC(=O)c1cnc2c(C)cc(Cl)cc2c1NCCCN1CCOCC1 [SJ000174094] | −10.52
COc1ccc2nc3cc(Cl)ccc3c(NCCCNCc3c4ccccc4cc4ccccc34)c2c1 [SJ000361099] | −3.728
CCCN(CCCNc1ccnc2cc(Cl)ccc12)Cc1ccc(OC)c(F)c1 [SJ000522994] | 15.16
c1ccc(-c2ccc3c(NCCCNCc4ccco4)ccnc3c2)cc1 [SJ000311282] | 28.69
Clc1ccc2c(NCCCN(Cc3ccccc3)Cc3c[nH]c4ccccc34)ccnc2c1 [SJ000520433] | 40.19
CCCN(CCCNc1ccnc2cc(C(F)(F)F)ccc12)Cc1ccc(OC)c(F)c1 [SJ000521013] | 21.76
Clc1ccc2c(NCCCNCc3ccc[nH]3)ccnc2c1 [SJ000575192] | 52.99
CC(C)(C)CCNCCCNc1ccnc2cc(Cl)ccc12 [SJ000521026] | 9.225
CCCN(CCCNc1c2ccc(Cl)cc2nc2ccc(OC)cc12)Cc1cccc(OC)c1O [SJ000520930] | −81.96
CSC(C)CCNCCCNc1ccnc2cc(Cl)ccc12 (stereo not shown) [SJ000361121] | 13.5
CCCN(CCCNc1ccnc2cc(C(F)(F)F)ccc12)Cc1ccc(N(C)C)cc1 [SJ000523077] | 23.71
CCCN(CCCNc1ccnc2cc(C(F)(F)F)ccc12)Cc1cc(Br)cs1 [SJ000520478] | −9.243
Fc1ccc(Cc2ccc3c(NCCCNCc4ccco4)ccnc3c2)c(Cl)c1 [SJ000311322] | 24.77
Cn1cc(CN(CCCNc2ccnc3cc(Cl)ccc23)Cc2ccccc2)c2ccccc21 [SJ000520439] | −9.311
Clc1ccc(CN(CCCNc2ccnc3cc(Cl)ccc23)Cc2ccccc2)c(Cl)c1 [SJ000361184] | 25.5
COc1cccc(CN(CCCNc2ccnc3cc(Cl)ccc23)Cc2ccccc2)c1 [SJ000361188] | −9.05
CCCN(CCCNc1ccnc2cc(C(F)(F)F)ccc12)Cc1cn(C)c2ccccc12 [SJ000520469] | 25.54
CCCN(CCCNc1ccnc2cc(Cl)ccc12)Cc1cccc(F)c1 [SJ000522758] | 27.42

SMILES | TR-FRET signal
CCCN(CCCNc1ccnc2cc(C(F)(F)F)ccc12)Cc1c(C)cc(C)cc1C [SJ000361264] | 19.93
CCCN(CCCNc1c2ccc(Cl)cc2nc2ccc(OC)cc12)Cc1cccc(OC(F)(F)F)c1 [SJ000522967] | 14.48
FC(F)(F)c1ccc2c(NCCCNCc3csc4ccccc34)ccnc2c1 [SJ000521061] | 41.86
CCCN(CCCNc1ccnc2cc(Cl)ccc12)Cc1cccc2c1OCO2 [SJ000357594] | 18.14
CCCN(CCCNc1ccnc2cc(Cl)ccc12)Cc1cccnc1 [SJ000357446] | 7.809
CCCN(CCCNc1ccnc2cc(Cl)ccc12)Cc1ccc(-c2cccc(Cl)c2)o1 [SJ000523045] | 16.23
CCCN(CCCCCC(=O)OC)CCCNc1ccnc2cc(C(F)(F)F)ccc12 [SJ000575191] | 5.6
Cc1ccc(CNCCCNc2ccnc3cc(Cl)ccc23)s1 [SJ000311190] | 10.83
CCCN(CCCNc1ccnc2cc(Cl)ccc12)Cc1ccc(Br)o1 [SJ000311195] | 14.48
Clc1ccc2c(NCCCNCc3ccoc3)ccnc2c1 [SJ000520913] | −11.15
CCCN(CCCNc1ccnc2cc(Cl)ccc12)Cc1c[nH]c(C)n1 [SJ000522990] | 4.828
COc1ccc(OC(F)(F)F)cc1CN(CCCNc1ccnc2cc(Cl)ccc12)Cc1ccccc1 [SJ000520452] | 20.44
COc1cccc(CN(CCCNc2ccnc3cc(Cl)ccc23)Cc2ccccc2)c1O [SJ000357465] | 13.17
CCCN(CCCCCC(=O)OC)CCCNc1ccnc2cc(Cl)ccc12 [SJ000523017] | 14.3
Cn1cccc1CNCCCNc1ccnc2cc(Cl)ccc12 [SJ000521019] | 18.96
CCOC(=O)c1cnc2c(Cl)cc(Cl)cc2c1NCCCN1CCOCC1 [SJ000176476] | −2.118
Cc1cccc(CN(CCCNc2ccnc3cc(Cl)ccc23)Cc2ccccc2)c1 [SJ000361183] | 6.02
CCCN(CCCNc1ccnc2cc(C(F)(F)F)ccc12)Cc1ccc(OC)c(OC)c1 [SJ000523079] | 14.66
CCCN(CCCNc1ccnc2cc(C(F)(F)F)ccc12)Cc1nc2ccccc2s1 [SJ000520484] | 7.404
